Reference: US20240092770A1, “Heterocycle RMB39 Modulators” (Recursion Pharmaceuticals, Inc., priority 2022, published 2024)

Each molecule was assayed against RBM39 and the DCAF15 complex (RBM39-Flag / His-DCAF15-DDA1-DDB1) (Homo sapiens (Human), UniProt Q14498+Q66K64) (assay: DCAF15 RBM39 complex formation TR-FRET assay). Conditions: RBM39(R150-D331) 3xFlag 50 nM, His-DCAF15-DDA1-DDB1 10 nM, 60 min room temperature.
Type: binding
Protocol: A TR-FRET assay was used to assess the effect of compounds disclosed herein on the interaction between RBM39 and the DCAF15 complex. Test compounds were dissolved to form a 10 mM DMSO stock solution. A 45 μL aliquot of the stock solution was transferred to a 384 pp-plate, and a threefold, 8-point dilution was performed via transferring 15 μL compound solution into 30 μL of DMSO. The plates were then spun at room temperature at 1,000 RPM for 1 minute.
A 30 nL aliquot of the diluted compound was transferred to a 384 well plate, which was incubated at room temperature for 15 minutes. Next, Solutions 1, 2, and 3 were prepared as described in the below tables. A 5 μL aliquot of Solution 2 was added to each well, followed by 5 μL of Solution 3 to start the reaction. The final volume of each well was 10 μL. The plates were incubated at room temperature for 60 minutes, and then read.
Next, an RBM39 (R150-D331) 3× Flag used in TR-FRET assay was prepared:
Recombinant RBM39 protein is composed of the R1R2 of RBM39 (aa 150 to 331; UniProt: Q14498). The coding sequence was sub-cloned into pGEX4T-1-RBM39-flag vector, expressed as a GST-fusion protein with N-terminal TEV protease cleavage site. A 3× Flag tag was added to the C-terminal of R1R2 used in a FRET assay.

Row | Structure (SMILES) | EC50 [nM]
1 | N#Cc1c[nH]c2c(NS(=O)(=O)c3nccs3)cccc12 [Compound 27] | 2800
2 | Cc1ccc(NS(=O)(=O)c2ncc(-c3cccnc3)s2)c2[nH]cc(C#N)c12 [Compound 32] | 136
3 | N#Cc1c[nH]c2c(NS(=O)(=O)c3cnc(C(F)(F)F)s3)cccc12 [Compound 34] | 301
4 | Cc1ccc(NS(=O)(=O)c2ncc(-c3ccncc3)s2)c2[nH]cc(C#N)c12 [Compound 36] | 354
5 | Cc1ccc(NS(=O)(=O)c2ncc(-c3ccccn3)s2)c2[nH]cc(C#N)c12 [Compound 37] | 427
6 | CCc1nc(S(=O)(=O)Nc2cccc3c(C#N)c[nH]c23)c[nH]1 [Compound 38] | 4190
7 | Cc1ccc(NS(=O)(=O)c2ncc(-c3ccncn3)s2)c2[nH]cc(C#N)c12 [Compound 45] | 394
8 | N#Cc1c[nH]c2c(NS(=O)(=O)c3csc(C(F)(F)F)n3)cccc12 [Compound 49] | 190
9 | N#Cc1c[nH]c2c(NS(=O)(=O)c3cncs3)cccc12 [Compound 50, N-(3-cyano-1H-indol-7-yl)thiazole-5-sulfonamide] | 966
10 | Cc1ncc(S(=O)(=O)Nc2cccc3c(C#N)c[nH]c23)s1 [Compound 51] | 164
11 | Cc1sc(S(=O)(=O)Nc2cccc3c(C#N)c[nH]c23)nc1Br [Compound 55] | 302
12 | Cc1ccc(NS(=O)(=O)c2nc(C(=O)N3CCCC3)cs2)c2[nH]cc(C#N)c12 [Compound 60] | 1360
13 | Cc1ccc(NS(=O)(=O)c2nc(C(=O)N3CCOCC3)cs2)c2[nH]cc(C#N)c12 [Compound 61] | 1790
14 | N#Cc1c[nH]c2c(NS(=O)(=O)c3cscn3)cccc12 [Compound 64] | 3440
15 | N#Cc1c[nH]c2c(NS(=O)(=O)c3nc(Br)cs3)cccc12 [Compound 65] | 1080
16 | Cc1ccc(NS(=O)(=O)c2ncc(-c3cncnc3)s2)c2[nH]cc(C#N)c12 [Compound 67] | 520
17 | Cc1ccc(NS(=O)(=O)c2ncc(-c3ccnnc3)s2)c2[nH]cc(C#N)c12 [Compound 68] | 708
18 | Cc1ccc(NS(=O)(=O)c2ncc(-c3cc[nH]n3)s2)c2[nH]cc(C#N)c12 [Compound 69] | 421
19 | Cc1ccc(NS(=O)(=O)c2ncc(-c3cn[nH]c3)s2)c2[nH]cc(C#N)c12 [Compound 70] | 338
20 | Cc1ccc(NS(=O)(=O)c2ncc(-c3cocn3)s2)c2[nH]cc(C#N)c12 [Compound 71] | 532

Row | Structure (SMILES) | EC50 [nM]
21 | CCN(CC)C(=O)c1csc(S(=O)(=O)Nc2ccc(C)c3c(C#N)c[nH]c23)n1 [Compound 73] | 738
22 | Cc1ccc(NS(=O)(=O)c2nc(C(=O)NCCO)cs2)c2[nH]cc(C#N)c12 [Compound 74] | 1450
23 | COCCNC(=O)c1csc(S(=O)(=O)Nc2ccc(C)c3c(C#N)c[nH]c23)n1 [Compound 75] | 2180
24 | Cc1ccc(NS(=O)(=O)c2nc(C(=O)N3CCC(O)C3)cs2)c2[nH]cc(C#N)c12 (centres unmarked) [Compound 76] | 3320
25 | Cc1ccc(NS(=O)(=O)c2nc(C(=O)N3CCCCC3)cs2)c2[nH]cc(C#N)c12 [Compound 77] | 828
26 | Cc1ccc(NS(=O)(=O)c2nc(C(=O)N3CCNCC3)cs2)c2[nH]cc(C#N)c12 [Compound 78] | 3250
27 | Cc1ccc(NS(=O)(=O)c2nc(C(=O)N3CCN(C)CC3)cs2)c2[nH]cc(C#N)c12 [Compound 79] | 9710
28 | N#Cc1c[nH]c2c(NS(=O)(=O)c3cc(C4CC4)no3)cccc12 [Compound 87] | 277
29 | N#Cc1c[nH]c2c(NS(=O)(=O)c3onc(C4CC4)c3Cl)cccc12 [Compound 89] | 174
30 | COc1ncc(S(=O)(=O)Nc2cccc3c(C#N)c[nH]c23)s1 [Compound 90] | 389
31 | CCc1ncc(S(=O)(=O)Nc2cccc3c(C#N)c[nH]c23)s1 [Compound 91] | 76.6
32 | Cc1ccc(NS(=O)(=O)c2cc(C(C)(C)C)no2)c2[nH]cc(C#N)c12 [Compound 94] | 45.2
33 | Cc1ccc(NS(=O)(=O)c2cnc(C(C)(C)C)o2)c2[nH]cc(C#N)c12 [Compound 100] | 364
34 | O=S(=O)(Nc1cccc2cn[nH]c12)c1nccs1 [Compound 102] | > 30000
35 | CC(C)(C)c1cc(S(=O)(=O)Nc2cccc3c(C#N)c[nH]c23)on1 [Compound 104] | 128
36 | N#Cc1c[nH]c2c(NS(=O)(=O)c3csc(C(F)F)n3)cccc12 [Compound 105] | 299
37 | N#Cc1c[nH]c2c(NS(=O)(=O)c3cnc(C4CC4)o3)cccc12 [Compound 107, N-(3-cyano-1H-indol-7-yl)-2-cyclopropyl-1,3-oxazole-5-sulfonamide] | 325
38 | Cc1ncc(S(=O)(=O)Nc2cccc3c(C#N)c[nH]c23)o1 [Compound 108] | 1970
39 | CC(C)(C)c1ncc(S(=O)(=O)Nc2cccc3c(C#N)c[nH]c23)o1 [Compound 110] | 729

Continued, values first:

Row | EC50 [nM] | Structure (SMILES)
40 | 1030 | Cc1ccc(NS(=O)(=O)c2nccs2)c2[nH]cc(C#N)c12 [Compound 2]
41 | 429 | Cc1ccc(NS(=O)(=O)c2ncc(Cl)s2)c2[nH]cc(C#N)c12 [Compound 3]
42 | 106 | Cc1ccc(NS(=O)(=O)c2cnc(Cl)s2)c2[nH]cc(C#N)c12 [Compound 7]
43 | 787 | CCc1nc(S(=O)(=O)Nc2ccc(C)c3c(C#N)c[nH]c23)c[nH]1 [Compound 8, N-(3-cyano-4-methyl-1H-indol-7-yl)-2-ethyl-1H-imidazole-4-sulfonamide]
44 | 436 | Cc1cnc(S(=O)(=O)Nc2ccc(C)c3c(C#N)c[nH]c23)s1 [Compound 9]
45 | 75.7 | Cc1sc(S(=O)(=O)Nc2ccc(C)c3c(C#N)c[nH]c23)nc1C#N [Compound 10]
46 | 108 | Cc1sc(S(=O)(=O)Nc2ccc(C)c3c(C#N)c[nH]c23)nc1Br [Compound 11]
47 | 384 | Cc1ccc(NS(=O)(=O)c2nc(C(F)(F)F)cs2)c2[nH]cc(C#N)c12 [Compound 12, N-(3-cyano-4-methyl-1H-indol-7-yl)-4-(trifluoromethyl)-1,3-thiazole-2-sulfonamide]
48 | 298 | Cc1ccc(NS(=O)(=O)c2nc(Br)cs2)c2[nH]cc(C#N)c12 [Compound 13]
49 | 269 | Cc1ccc(NS(=O)(=O)c2cnc(C(F)(F)F)s2)c2[nH]cc(C#N)c12 [Compound 24]
50 | 520 | Cc1ccc(NS(=O)(=O)c2c[nH]c(C(C)C)n2)c2[nH]cc(C#N)c12 [Compound 39]
51 | 275 | Cc1ccc(NS(=O)(=O)c2cnc(Br)s2)c2[nH]cc(C#N)c12 [Compound 40]
52 | 363 | Cc1ccc(NS(=O)(=O)c2nc(CCO)cs2)c2[nH]cc(C#N)c12 [Compound 41]
53 | 55.2 | Cc1ccc(NS(=O)(=O)c2cncs2)c2[nH]cc(C#N)c12 [Compound 42]
54 | > 30000 | Cc1noc(C)c1S(=O)(=O)Nc1ccc(C)c2c(C#N)c[nH]c12 [Compound 43]
55 | 904 | Cc1ccc(NS(=O)(=O)c2ncc(CCO)s2)c2[nH]cc(C#N)c12 [Compound 44]
56 | 97 | Cc1ccc(NS(=O)(=O)c2csc(C(F)(F)F)n2)c2[nH]cc(C#N)c12 [Compound 47]
57 | 125 | Cc1ncc(S(=O)(=O)Nc2ccc(C)c3c(C#N)c[nH]c23)s1 [Compound 48]

Row | EC50 [nM] | Structure (SMILES)
58 | > 30000 | Cc1ccc(NS(=O)(=O)c2nc(C(=O)O)cs2)c2[nH]cc(C#N)c12 [Compound 57]
59 | 1080 | CNC(=O)c1csc(S(=O)(=O)Nc2ccc(C)c3c(C#N)c[nH]c23)n1 [Compound 58]
60 | 802 | Cc1ccc(NS(=O)(=O)c2nc(C(=O)N(C)C)cs2)c2[nH]cc(C#N)c12 [Compound 59]
61 | 1170 | Cc1ccc(NS(=O)(=O)c2cscn2)c2[nH]cc(C#N)c12 [Compound 63]
62 | 432 | Cc1ccc(NS(=O)(=O)c2nc(C(N)=O)cs2)c2[nH]cc(C#N)c12 [Compound 72]
63 | 55.6 | Cc1ccc(NS(=O)(=O)c2cc(C3CC3)no2)c2[nH]cc(C#N)c12 [Compound 81]
64 | 1440 | Cc1nc(S(=O)(=O)Nc2ccc(C)c3c(C#N)c[nH]c23)c(C)s1 [Compound 82]
65 | 105 | Cc1ccc(NS(=O)(=O)c2onc(C3CC3)c2Cl)c2[nH]cc(C#N)c12 [Compound 83]
66 | 175 | COc1ncc(S(=O)(=O)Nc2ccc(C)c3c(C#N)c[nH]c23)s1 [Compound 84]
67 | 95.9 | CCc1ncc(S(=O)(=O)Nc2ccc(C)c3c(C#N)c[nH]c23)s1 [Compound 85]
68 | 2070 | Cc1nocc1S(=O)(=O)Nc1ccc(C)c2c(C#N)c[nH]c12 [Compound 86]
69 | 1520 | Cc1scnc1S(=O)(=O)Nc1ccc(C)c2c(C#N)c[nH]c12 [Compound 93]
70 | 104 | Cc1ccc(NS(=O)(=O)c2csc(C(F)F)n2)c2[nH]cc(C#N)c12 [Compound 95]
71 | 105 | Cc1ccc(NS(=O)(=O)c2cnc(C3CC3)o2)c2[nH]cc(C#N)c12 [Compound 97]
72 | 196 | Cc1ncc(S(=O)(=O)Nc2ccc(C)c3c(C#N)c[nH]c23)o1 [Compound 98]
73 | 518 | Cc1nc(Br)sc1S(=O)(=O)Nc1ccc(C)c2c(C#N)c[nH]c12 [Compound 99]
74 | 2070 | Cc1nc(Br)sc1S(=O)(=O)Nc1cccc2c(C#N)c[nH]c12 [Compound 109]
